Drawing on PubChem BioAssay (NCI), this text covers TGI for 8 compounds.

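The compound was tested at five concentrations on cells cultured in 96-well plates, with a 48-hour exposure period. Definition used: TGI = concentration required for complete inhibition of growth.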

Test systems include A549 NSCLC; COLO 205 colon; HCT-116 colon; HCT-15 colon; KM12 colon; LOX IMVI melanoma; M14 melanoma; MOLT-4 leukemia; NCI-H226 lung; OVCAR-8 ovarian; RPMI-8226 leukemia; RXF 393 renal; SF-268 CNS; SF-295 CNS; SK-MEL-5 melanoma; SNB-75 CNS; UACC-62 melanoma; UO-31 renal.
Common to all, as to assay: NCI tumour cell line growth inhibition, 48 h

On to `COC(=O)CC1N=C(NC#N)N(CCc2c[nH]c3ccccc23)C1=O` (stereo not drawn), for which the TGI in the test on A549 NSCLC, in the test with COLO 205 colon, in the test on HCT-116 colon, with HCT-15 colon, in the test on KM12 colon and with LOX IMVI melanoma was above 100 µM throughout. The TGI in the test on M14 melanoma, in the test on MOLT-4 leukemia, in the test on NCI-H226 lung, in the test on OVCAR-8 ovarian, in the test with RPMI-8226 leukemia and in the test on RXF 393 renal was above 100 µM throughout. In addition, the TGI in the test with SF-268 CNS, in the test on SF-295 CNS, in the test with SK-MEL-5 melanoma, with SNB-75 CNS, in the test on UACC-62 melanoma and in the test with UO-31 renal was above 100 µM each time.
For `CC(=O)O[C@H]1C(=O)[C@@]2(C)C(C(OC(=O)c3ccccc3)[C@]3(O)CC(OC(=O)C(O)C(NC(=O)c4ccc(C(F)(F)F)cc4)c4ccccc4)C(C)=C1C3(C)C)[C@]1(OC(C)=O)CO[C@@H]1C[C@@H]2O` (stereo partly drawn), the TGI in the test on A549 NSCLC was above 37.5 µM; in the test on COLO 205 colon, 0.153 µM; in the test on HCT-116 colon, 0.196 µM; in the test on HCT-15 colon, 13.5 µM; with KM12 colon it was 0.202 µM; in the test with LOX IMVI melanoma, 6.43 µM. For the same compound, the TGI stood at 0.485 µM in the test with M14 melanoma; 7.39 µM in the test with MOLT-4 leukemia; 4.96 µM with NCI-H226 lung; 2.44 µM in the test with OVCAR-8 ovarian; 5.88 µM in the test with RPMI-8226 leukemia; 5.3 µM in the test with SF-268 CNS. Also, the TGI in the test with SF-295 CNS was 1.79 µM; with SK-MEL-5 melanoma, 3.8 µM; with SNB-75 CNS it was 0.00891 µM; with UACC-62 melanoma, 0.269 µM.
Take `CCOC(=O)CC(C)C1(C(=O)OCC)CCCCC1=O` (stereo not drawn): the TGI in the test with A549 NSCLC is above 100 µM; in the test with COLO 205 colon, above 100 µM; with HCT-116 colon it was above 100 µM; with HCT-15 colon it was 50 µM; with KM12 colon, above 100 µM; with LOX IMVI melanoma, above 100 µM. For the same compound, the TGI was above 100 µM in the test on M14 melanoma; above 100 µM with MOLT-4 leukemia; above 100 µM in the test with NCI-H226 lung; above 100 µM with OVCAR-8 ovarian; 60.6 µM with RPMI-8226 leukemia; above 100 µM with RXF 393 renal. Besides, the TGI in the test on SF-268 CNS, with SF-295 CNS, in the test on SK-MEL-5 melanoma, in the test on SNB-75 CNS, with UACC-62 melanoma and in the test with UO-31 renal was above 100 µM throughout.
As for `O=Cc1ccccc1COC(=O)c1cc(C(=O)OCc2ccccc2C=O)c(C(=O)OCc2ccccc2C=O)cc1C(=O)OCc1ccccc1C=O`, the TGI in the test on A549 NSCLC, in the test with COLO 205 colon, in the test with HCT-116 colon, with HCT-15 colon, with KM12 colon and in the test on LOX IMVI melanoma was above 100 µM in each case. In addition, the TGI with M14 melanoma, with MOLT-4 leukemia, in the test on NCI-H226 lung, in the test with OVCAR-8 ovarian, in the test on RPMI-8226 leukemia and in the test on RXF 393 renal was above 100 µM throughout. The TGI was above 100 µM with SF-268 CNS; above 100 µM in the test with SF-295 CNS; above 100 µM in the test with SK-MEL-5 melanoma; 65.4 µM in the test with SNB-75 CNS; above 100 µM with UACC-62 melanoma; above 100 µM with UO-31 renal.
Consider `CCOC(=O)CCC(=O)C1c2cccc(O)c2C(=O)c2c(O)cc(C)cc21` (stereo not drawn), for which the TGI with A549 NSCLC stood at 3.86 µM; with COLO 205 colon it was 3.57 µM; in the test with HCT-116 colon, 1.88 µM; in the test with HCT-15 colon, 2.25 µM; in the test on KM12 colon it was 0.563 µM; in the test with LOX IMVI melanoma, 1.97 µM. The TGI was found to be 2.71 µM in the test with M14 melanoma; 6.76 µM in the test on MOLT-4 leukemia; 1.75 µM with NCI-H226 lung; 2.01 µM in the test on OVCAR-8 ovarian; 5.77 µM in the test on RPMI-8226 leukemia; 1.25 µM in the test on RXF 393 renal. Moreover, the TGI in the test on SF-295 CNS turned out to be 0.878 µM; with SK-MEL-5 melanoma, 1.83 µM; in the test on SNB-75 CNS it was 1.76 µM; in the test with UACC-62 melanoma it was 1.48 µM; with UO-31 renal, 1.19 µM.
As to `Cn1c(O)c(C(=O)NC2CCCCC2)c(=O)n(C)c1=S`, the TGI was determined as 17.4 µM with A549 NSCLC; 4.42 µM with COLO 205 colon; 25.9 µM in the test on HCT-15 colon; 27.7 µM in the test on KM12 colon; 28.5 µM with LOX IMVI melanoma; 21.4 µM in the test on M14 melanoma. The TGI in the test with MOLT-4 leukemia is 12.6 µM; in the test with NCI-H226 lung, 30.5 µM; in the test with OVCAR-8 ovarian, 17.9 µM; in the test on RPMI-8226 leukemia it was 17.2 µM; in the test with SF-268 CNS, 21.6 µM; in the test with SF-295 CNS, 17.8 µM. Further, the TGI with SK-MEL-5 melanoma stood at 17 µM; with UACC-62 melanoma it was 14.4 µM.
Take `COC(=O)C(Cc1nc2ccccc2[nH]c1=O)C(NO)C(=O)Nc1c(Cl)cc([N+](=O)[O-])cc1Cl` (stereo not drawn): the TGI with A549 NSCLC is above 100 µM; with COLO 205 colon, above 100 µM; in the test on HCT-116 colon, 47.9 µM; in the test on HCT-15 colon, above 100 µM; in the test with KM12 colon, above 100 µM; in the test with M14 melanoma, above 100 µM. In addition, the TGI is 67 µM in the test with MOLT-4 leukemia; above 100 µM with OVCAR-8 ovarian; above 100 µM in the test with RPMI-8226 leukemia; 50.2 µM in the test with RXF 393 renal; above 100 µM in the test on SF-268 CNS; above 100 µM in the test with SF-295 CNS. For the same compound, the figures for the TGI with SK-MEL-5 melanoma, in the test with UACC-62 melanoma and with UO-31 renal were 46.4 µM, 34.5 µM and above 100 µM, respectively.
In the case of `O=C(CC(=O)n1nc(-c2ccccc2)c(N=Nc2ccc(Cl)cc2)c1-c1ccccc1)Nc1ccc(Cl)cc1`, the TGI in the test with A549 NSCLC was above 60.6 µM; in the test on COLO 205 colon it was above 63.9 µM; in the test on HCT-116 colon it was above 55.1 µM; in the test with HCT-15 colon it was above 55.8 µM; in the test on KM12 colon, above 100 µM; with LOX IMVI melanoma, above 56.9 µM. In addition, the TGI in the test on M14 melanoma is above 100 µM; in the test on MOLT-4 leukemia, above 100 µM; in the test with NCI-H226 lung, above 100 µM; in the test on OVCAR-8 ovarian it was above 100 µM; in the test on RPMI-8226 leukemia it was above 64.6 µM; with SF-268 CNS, above 100 µM. Moreover, the TGI with SF-295 CNS, with SK-MEL-5 melanoma, in the test on SNB-75 CNS, in the test on UACC-62 melanoma and in the test with UO-31 renal was above 100 µM in each case.
